Test results as given in ChEMBL document CHEMBL1144685, “Naphthamides as novel and potent vascular endothelial growth factor receptor tyrosine kinase inhibitors: design, synthesis, and evaluation” (J Med Chem, 2008).
pIC50: −log10 of the molar value.

How the values were obtained:
[1] = target: Vascular endothelial growth factor receptor 2 (Homo sapiens, UniProt P35968)
Description: Inhibition of KDR by HTRF assay

HUVEC [2] = assay: cells; settings: Homo sapiens
Description: Inhibition of VEGF-induced proliferation of HUVEC cells

HUVEC [3] = assay: cells; settings: Homo sapiens; remark: listed apart in the source
Description: Inhibition of bFGF-induced proliferation of HUVEC cells

[4] = Intrinsic clearance in rat liver microsomes; assay type: ADME, Microsome
[5] = Intrinsic clearance in human liver microsomes; assay type: ADME, Microsome
[6] = Clearance in Sprague-Dawley rat at 0.5 mg/kg, iv; assay type: ADME, organism-based; set-up: dose 0.5 mg/kg, route intravenous; settings: in vivo
[7] = Volume of distribution at steady state in Sprague-Dawley rat at 0.5 mg/kg, iv; assay type: ADME, organism-based; set-up: dose 0.5 mg/kg, route intravenous; settings: in vivo, read-out: Vdss
[8] = Half life in Sprague-Dawley rat at 0.5 mg/kg, iv; assay type: ADME, organism-based; set-up: dose 0.5 mg/kg, route intravenous; settings: in vivo
[9] = Mean retention time in Sprague-Dawley rat at 0.5 mg/kg, iv; assay type: ADME, organism-based; set-up: dose 0.5 mg/kg, route intravenous; settings: in vivo
Cytochrome P450 3A4 = Cytochrome P450 3A4 (Homo sapiens, UniProt P08684)
Cytochrome P450 2D6 = Cytochrome P450 2D6 (Homo sapiens, UniProt P10635)
Cytochrome P450 2D6, sequence (P10635 whole entry): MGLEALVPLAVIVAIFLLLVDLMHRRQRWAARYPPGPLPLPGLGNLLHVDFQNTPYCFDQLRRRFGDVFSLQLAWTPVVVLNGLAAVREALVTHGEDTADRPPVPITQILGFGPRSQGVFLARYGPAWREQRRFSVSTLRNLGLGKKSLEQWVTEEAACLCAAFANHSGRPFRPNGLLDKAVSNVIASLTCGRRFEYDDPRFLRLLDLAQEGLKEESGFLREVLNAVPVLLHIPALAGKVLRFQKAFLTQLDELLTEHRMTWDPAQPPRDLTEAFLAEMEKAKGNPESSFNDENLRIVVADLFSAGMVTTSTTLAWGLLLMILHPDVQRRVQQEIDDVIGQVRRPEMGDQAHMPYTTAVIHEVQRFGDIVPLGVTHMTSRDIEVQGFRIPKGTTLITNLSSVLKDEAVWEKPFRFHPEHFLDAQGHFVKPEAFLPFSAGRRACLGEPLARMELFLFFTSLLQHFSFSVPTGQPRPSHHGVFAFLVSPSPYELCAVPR

Vascular endothelial growth factor receptor 2, sequence (P35968 whole entry): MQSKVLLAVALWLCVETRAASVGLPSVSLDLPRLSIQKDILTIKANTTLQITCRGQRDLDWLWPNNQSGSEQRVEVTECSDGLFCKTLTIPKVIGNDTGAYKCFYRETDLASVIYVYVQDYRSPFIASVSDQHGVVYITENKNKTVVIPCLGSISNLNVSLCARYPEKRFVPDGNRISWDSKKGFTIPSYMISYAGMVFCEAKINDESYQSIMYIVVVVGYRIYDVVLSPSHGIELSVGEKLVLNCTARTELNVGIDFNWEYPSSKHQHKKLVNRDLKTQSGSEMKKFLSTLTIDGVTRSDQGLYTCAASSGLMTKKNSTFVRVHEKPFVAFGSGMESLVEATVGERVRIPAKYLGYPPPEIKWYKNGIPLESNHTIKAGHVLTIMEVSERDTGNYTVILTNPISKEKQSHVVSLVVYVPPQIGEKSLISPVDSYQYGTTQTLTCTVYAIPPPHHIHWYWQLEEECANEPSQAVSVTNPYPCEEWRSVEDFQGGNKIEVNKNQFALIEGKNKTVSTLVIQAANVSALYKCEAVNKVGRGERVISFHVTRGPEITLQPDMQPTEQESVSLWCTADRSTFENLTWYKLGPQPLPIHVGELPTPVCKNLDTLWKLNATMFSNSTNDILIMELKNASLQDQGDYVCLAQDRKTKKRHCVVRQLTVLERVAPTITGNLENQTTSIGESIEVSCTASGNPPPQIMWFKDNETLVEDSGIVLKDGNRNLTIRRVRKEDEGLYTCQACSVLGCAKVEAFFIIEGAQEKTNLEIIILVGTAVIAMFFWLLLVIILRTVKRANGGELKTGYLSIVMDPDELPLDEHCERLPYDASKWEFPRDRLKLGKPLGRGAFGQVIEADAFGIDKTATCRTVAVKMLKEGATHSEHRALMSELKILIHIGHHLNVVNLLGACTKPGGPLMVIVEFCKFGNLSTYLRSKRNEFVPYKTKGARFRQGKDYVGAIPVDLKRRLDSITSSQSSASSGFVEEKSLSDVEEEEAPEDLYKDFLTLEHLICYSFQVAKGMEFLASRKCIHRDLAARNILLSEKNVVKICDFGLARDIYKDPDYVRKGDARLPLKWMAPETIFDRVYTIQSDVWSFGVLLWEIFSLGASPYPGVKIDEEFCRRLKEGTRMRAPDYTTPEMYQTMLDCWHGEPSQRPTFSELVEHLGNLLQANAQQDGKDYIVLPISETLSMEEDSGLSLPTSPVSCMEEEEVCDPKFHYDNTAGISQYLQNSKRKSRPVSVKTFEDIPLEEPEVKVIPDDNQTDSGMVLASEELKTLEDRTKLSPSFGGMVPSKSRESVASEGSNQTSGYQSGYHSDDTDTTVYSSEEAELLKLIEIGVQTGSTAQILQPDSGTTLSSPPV
Cytochrome P450 3A4, sequence (P08684 whole entry): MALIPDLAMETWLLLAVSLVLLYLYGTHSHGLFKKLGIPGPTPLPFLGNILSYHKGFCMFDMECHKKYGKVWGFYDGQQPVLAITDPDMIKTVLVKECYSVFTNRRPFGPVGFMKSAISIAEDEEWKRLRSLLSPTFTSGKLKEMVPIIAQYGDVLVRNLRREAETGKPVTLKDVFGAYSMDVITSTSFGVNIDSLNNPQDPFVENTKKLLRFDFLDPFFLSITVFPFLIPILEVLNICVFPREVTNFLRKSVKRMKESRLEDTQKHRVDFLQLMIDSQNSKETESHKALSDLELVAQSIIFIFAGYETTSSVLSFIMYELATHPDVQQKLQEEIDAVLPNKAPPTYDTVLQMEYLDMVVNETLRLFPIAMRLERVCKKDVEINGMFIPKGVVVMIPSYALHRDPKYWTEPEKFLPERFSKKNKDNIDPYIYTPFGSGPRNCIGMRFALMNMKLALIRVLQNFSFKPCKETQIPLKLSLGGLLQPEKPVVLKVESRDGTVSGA

In the case of `COc1cc2nccc(Nc3ccc4c(C(=O)Nc5ccc(Cl)cc5)cccc4c3)c2cc1OC`, the pIC50 [1] was 8.10, the pIC50 (HUVEC [2]) was 7.85 and the pIC50 (HUVEC [3]) was 6.94.
In the case of `COc1cc2nccc(Oc3ccc4c(C(=O)Nc5cc(C)no5)cccc4c3)c2cc1OC`, the microsomal CLint [4] was 40 µL/min/mg, the microsomal CLint [5] was 40 µL/min/mg and the clearance [6] was 21.7 mL/min/kg. It also gave a Vd [7] of 2.7 L/kg, a half-life [8] of 2.4 h and an MRT [9] of 2.1 h. For the same molecule, the pIC50 [1] was 9.00, the pIC50 (Cytochrome P450 3A4) was 4.40 and the pIC50 (Cytochrome P450 2D6) was < 4.30. For the same molecule, the pIC50 (HUVEC [2]) was 8.15 and the pIC50 (HUVEC [3]) was < 5.94.
In the case of `CNc1nccc(Oc2ccc3c(C(=O)Nc4ccc(Cl)cc4)cccc3c2)n1`, the pIC50 [1] was 7.34, the pIC50 (HUVEC [2]) was 6.53 and the pIC50 (HUVEC [3]) was < 5.96.
For `COc1cc2nccc(Oc3ccc4c(C(=O)Nc5ccc(F)cc5)cccc4c3)c2cc1OC`, the pIC50 [1] was 9.00, the pIC50 (HUVEC [2]) was 8.70 and the pIC50 (HUVEC [3]) was 6.52.
In the case of `COc1cc2nccc(Oc3ccc4c(C(=O)Nc5ccc(C(C)(C)C)cc5)cccc4c3)c2cc1OC`, the pIC50 [1] was 9.15, the pIC50 (HUVEC [2]) was 7.20 and the pIC50 (HUVEC [3]) was 6.03.
Molecule `COc1cc2nccc(Oc3ccc4c(C(=O)Nc5ccon5)cccc4c3)c2cc1OC` has a pIC50 [1] of 9.70.
For `COc1cc2nccc(Oc3ccc4c(C(=O)Nc5ccc(C)cc5)cccc4c3)c2cc1OC`, the pIC50 [1] was 9.30, the pIC50 (HUVEC [2]) was 8.70 and the pIC50 (HUVEC [3]) was 6.26.
In the case of `COc1cc2nccc(Oc3ccc4c(C(=O)Nc5cccc(F)c5)cccc4c3)c2cc1OC`, the pIC50 [1] was 9.22 and the pIC50 (HUVEC [2]) was 8.52.
Work on `COc1cc2nccc(Oc3ccc4c(C(=O)Nc5cc(C(C)(C)C)on5)cccc4c3)c2cc1OC` yielded a pIC50 [1] of 9.10, a pIC50 (HUVEC [2]) of 7.17 and a pIC50 (HUVEC [3]) of 6.72.
For `O=C(Nc1ccc(Cl)cc1)c1cccc2cc(Oc3ccncc3)ccc12`, the pIC50 [1] was 7.74, the pIC50 (HUVEC [2]) was 6.66 and the pIC50 (HUVEC [3]) was < 5.96.
`COc1cc2nccc(Oc3ccc4c(C(=O)NC5(C)CC5)cccc4c3)c2cc1OC` showed a pIC50 [1] of 7.82.
Work on `COc1cc2nccc(Oc3ccc4c(C(=O)NC5CC5)cccc4c3)c2cc1OC` yielded a pIC50 (HUVEC [2]) of 9.00.
With `O=C(Nc1ccc(Cl)cc1)c1cccc2cc(Oc3ncnc4[nH]ccc34)ccc12` the pIC50 [1] was 7.55, the pIC50 (HUVEC [2]) was 7.43 and the pIC50 (HUVEC [3]) was < 5.94.
With `COc1cc2nccc(Oc3ccc4c(C(=O)Nc5ccc(Cl)cc5Cl)cccc4c3)c2cc1OC` the pIC50 [1] was 8.70, the pIC50 (HUVEC [2]) was 7.85 and the pIC50 (HUVEC [3]) was < 5.94.
With `COc1cc2nccc(Oc3ccc4c(C(=O)Nc5cccc(C(F)(F)F)c5)cccc4c3)c2cc1OC` the pIC50 [1] was 9.30, the pIC50 (HUVEC [2]) was 7.47 and the pIC50 (HUVEC [3]) was 6.69.
For `COc1cc2nccc(Oc3ccc4c(C(=O)Nc5cccc(Cl)c5)cccc4c3)c2cc1OC`, the pIC50 [1] was 9.52 and the pIC50 (HUVEC [2]) was 8.29.
Work on `COc1cc2nccc(Oc3ccc4c(C(=O)Nc5ccc(Cl)c(C(F)(F)F)c5)cccc4c3)c2cc1OC` yielded a pIC50 [1] of 9.00, a pIC50 (HUVEC [2]) of 6.61 and a pIC50 (HUVEC [3]) of 6.64.
In the case of `CNc1cc(Oc2ccc3c(C(=O)Nc4ccc(Cl)cc4)cccc3c2)ccn1`, the pIC50 [1] was 8.15, the pIC50 (HUVEC [2]) was 6.85 and the pIC50 (HUVEC [3]) was < 5.96.
With `COc1ccc2c(Oc3ccc4c(C(=O)Nc5ccc(Cl)cc5)cccc4c3)ccnc2c1` the pIC50 [1] was 9.00, the pIC50 (HUVEC [2]) was 8.10 and the pIC50 (HUVEC [3]) was < 5.96.
In the case of `CNc1cc(Oc2ccc3c(C(=O)Nc4ccc(Cl)cc4)cccc3c2)ncn1`, the pIC50 [1] was 7.70, the pIC50 (HUVEC [2]) was 6.97 and the pIC50 (HUVEC [3]) was < 5.96.
For `CCCNC(=O)c1cccc2cc(Oc3ccnc4cc(OC)c(OC)cc34)ccc12`, the pIC50 [1] was 8.89, the pIC50 (HUVEC [2]) was 8.15 and the pIC50 (HUVEC [3]) was < 5.94.
